Results: patent publication US20240101496A1, “SYNERGISTIC ACTION OF DCD AND ALKOXYPYRAZOLES AS NITRIFICATION INHIBITORS” (BASF SE, priority 2021, published 2024)

Columns and labels:
[1] = system: nitrification in soil Limburgerhof; assay: Inhibition of nitrification in soil, Experiment 1 (incubation 28 days)
Protocol: (§1) The mixtures of the invention were tested as follows in terms of the inhibition of nitrification:
(§2) 100 g soil (soil Limburgerhof with pH(CaCl2) 6.8; 73% sand, 23% silt, 4% clay, which is classified according to FAO as a sandy loam) is filled into 500 ml plastic bottles and is moistened to 50% water holding capacity. The soil is incubated at 20° C. for two weeks prior to the experiments to activate the microbial biomass. 1 ml test solution, containing the components of the mixture in the appropriate concentration (usually from 0.1 to 3.13% (w/w) of fertilized NH4—N), and 10 mg nitrogen in the form of ammoniumsulfate-N(NH4—N) is added to the soil and everything mixed well. Unfertilized controls received 1 ml pure water. Bottles are capped but loosely to allow air exchange. The bottles are then incubated at 20° C. for 0 and 28 days in Experiment 1, and for 0 and 42 days in Experiment 2.
(§3) For analysis, 300 ml of a 1% K2SO4-solution is added to the bottle containing the soil and shaken for 2 hours in a horizontal shaker at 150 rpm. Then the whole solution is filtered through a filter (Macherey-Nagel Filter MN 807 ¼). Ammonium and nitrate content is then analyzed in the filtrate using an autoanalyzer. Ammonium was quantified via an indophenol blue dye at 660 nm, and nitrate via an azo dye at 540 nm.
(§4) The nitrification inhibition is expressed as % of NH4—N recovery from fertilized NH4—N(100%) after subtraction of unfertilized control soil, and as % inhibition of NO3—N formation (% reduction of NO3^− production) according to the formula:
(§5) In every experiment three tests (n=3) regarding the inhibition of nitrification were performed in each case.
(§6) The results were compared with the results calculated by Colby (Colby, S.R., Calculating synergistic and antagonistic responses of herbicide combinations, Weeds, 15, pp. 20-22, 1967) for an additive effect.
(§7) Colby's formula:E=x+y−x·y/100 • E=expected efficacy, expressed in % of the untreated control, when using the mixture comprising the components (i) and (ii) at concentrations a and b; • x=efficacy, expressed in % of the untreated control, when using component (i) at the concentration a; • y=efficacy, expressed in % of the untreated control, when using component (ii) at the concentration b.

[2] = system: nitrification in soil Limburgerhof; assay: Inhibition of nitrification in soil, Experiment 2 (incubation 42 days)
Protocol: as §1, §2, §3, §4, §5, §6, §7

[3] = system: nitrification in soil Limburgerhof; assay: Inhibition of nitrification in soil, mixtures with R^1 is CH2CH3, tested analogously (50 g soil, 4 replicates, 28 and 42 days); details: R^1 is CH2CH3 series
Protocol: as §2, §3
The nitrification inhibition is expressed as % of NH4—N recovery from fertilized NH4—N(100%) after subtraction of unfertilized control soil, and as % inhibition of NO3—N formation (% reduction of NO3^− production) according to the formula: […]
as §6, §7
The following mixtures were tested analogously using 50 g soil Limburgerhof as defined above and ammonium sulfate as fertilizer in an amount N of 10 mg NH4N/100 g soil (number of replicates: 4)

[4] = (i) 0.1, (ii) 0 wt.-% relative to NH4—N
[5] = (i) 0.2, (ii) 0 wt.-% relative to NH4—N
[6] = (i) 0.4, (ii) 0 wt.-% relative to NH4—N
[7] = (i) 0.8, (ii) 0 wt.-% relative to NH4—N
[8] = (i) 0.3, (ii) 0 wt.-% relative to NH4—N
[9] = (i) 0.9, (ii) 0 wt.-% relative to NH4—N
[10] = (i) 2.7, (ii) 0 wt.-% relative to NH4—N
[11] = (i) 0, (ii) 0.5 wt.-% relative to NH4—N
[12] = (i) 0, (ii) 1 wt.-% relative to NH4—N
[13] = (i) 0, (ii) 2 wt.-% relative to NH4—N
[14] = (i) 0, (ii) 1.25 wt.-% relative to NH4—N
[15] = (i) 0, (ii) 3.13 wt.-% relative to NH4—N
[16] = (i) 0, (ii) 0.2 wt.-% relative to NH4—N

## COc1cc(C)n[nH]1 [Component (i)]
[1]; [4]
  % Inhibition of NO3^− production after 28 days, Measured: 0.5%
  % NH4—N recovery from fertilized NH4—N after 28 days, Measured: 0.7%
[1]; [5]
  % Inhibition of NO3^− production after 28 days, Measured: 25.8%
  % NH4—N recovery from fertilized NH4—N after 28 days, Measured: 17.2%
[1]; [6]
  % Inhibition of NO3^− production after 28 days, Measured: 44.2%
  % NH4—N recovery from fertilized NH4—N after 28 days, Measured: 41.8%
[1]; [7]
  % Inhibition of NO3^− production after 28 days, Measured: 67.6%
  % NH4—N recovery from fertilized NH4—N after 28 days, Measured: 62.6%
[2]; [4]
  % Inhibition of NO3^− production after 42 days, Measured: 2.5%
[2]; [8]
  % Inhibition of NO3^− production after 42 days, Measured: 12.2%
  % NH4—N recovery from fertilized NH4—N after 42 days, Measured: 1.9%
[2]; [9]
  % Inhibition of NO3^− production after 42 days, Measured: 42.1%
  % NH4—N recovery from fertilized NH4—N after 42 days, Measured: 29.6%
[2]; [10]
  % Inhibition of NO3^− production after 42 days, Measured: 83.8%
  % NH4—N recovery from fertilized NH4—N after 42 days, Measured: 64.4%

## N#CN=C(N)N [Component (ii), Dicyandiamide]
[1]; (i) 0, (ii) 0.25 wt.-% relative to NH4—N
  % Inhibition of NO3^− production after 28 days, Measured: −1.2%
[1]; [11]
  % Inhibition of NO3^− production after 28 days, Measured: 7.7%
[1]; [12]
  % Inhibition of NO3^− production after 28 days, Measured: 3.5%
  % NH4—N recovery from fertilized NH4—N after 28 days, Measured: 0.8%
[1]; [13]
  % Inhibition of NO3^− production after 28 days, Measured: 16.3%
  % NH4—N recovery from fertilized NH4—N after 28 days, Measured: 9.0%
[3]; [14]
  % Inhibition of NO3^− production after 28 days, Measured: 4.3%
  % Inhibition of NO3^− production after 42 days, Measured: 4.0%
  % NH4—N recovery from fertilized NH4—N after 28 days, Measured: 0.0%
  % NH4—N recovery from fertilized NH4—N after 42 days, Measured: 0.0%
[3]; [15]
  % Inhibition of NO3^− production after 28 days, Measured: 15.7%
  % Inhibition of NO3^− production after 42 days, Measured: 4.0%
  % NH4—N recovery from fertilized NH4—N after 28 days, Measured: 0.0%
  % NH4—N recovery from fertilized NH4—N after 42 days, Measured: 0.0%
[2]; [16]
  % Inhibition of NO3^− production after 42 days, Measured: 9.2%
  % NH4—N recovery from fertilized NH4—N after 42 days, Measured: 0%
[2]; [11]
  % Inhibition of NO3^− production after 42 days, Measured: 10.4%
[2]; [14]
  % Inhibition of NO3^− production after 42 days, Measured: 10.0%
[2]; [15]
  % Inhibition of NO3^− production after 42 days, Measured: 15.4%
